In US12653860B2, “Compositions and methods for editing beta-globin for treatment of hemaglobinopathies” (Vertex Pharmaceuticals Incorporated, priority 2019, dated 2026):

Tested on: BFP gene encoded in the AAVS1 locus of HEK293 T cells
Assay: BFP to GFP reporter assay of HDR repair (flow cytometry)
Type: cell-based
Conditions: for HDR efficiency (improvement): 1.25 μM SCR7 or 10 μM RS-1, any ssODN construct, relative to DMSO alone
Method: An in vitro assay was conducted to determine the ability of various inhibitors and enhancers to improve the efficiency of HDR repair in HEK293 T cells. Specifically, a fluorescent reporter-based screening approach was developed to identify molecules that enhance gene-editing by HDR. A reporter system was generated in HEK293 T cells comprising a genomic AAVS1 locus that encoded either a blue fluorescent protein (BFP) or a green fluorescent protein (GFP) within the AAVS1 locus. A gene encoding BFP can be converted to a gene encoding GFP by substitution of cytosine at position 199 to uridine (e.g., a C to U transition at position 199). By introducing a DSB within the BFP gene using a CRISPR/Cas9 gene-editing system, a homology donor DNA encoding the nucleotide substitution can be used to edit the BFP gene to a GFP gene by HDR repair. Thus, a gene edit that induces a C to U transition at position 199 results in a change in cellular fluorescence. A change in the fluorescence of the cell measured by flow cytometry can be used to quantify efficiency of HDR repair. Additionally, the reverse gene edit can be performed for an AAVS1 locus encoding a GFP gene, wherein a GFP can be converted to BFP by substitution of uridine at position 199 to cytosine.
To create the reporter system, an AAV-based homology donor DNA encoding either BFP or GFP was created. The AAV-BFP or AAV-GFP donor was flanked by homology arms that were 1000 base pairs in length and expression of BFP or GFP was driven by the MND promoter (e.g., a synthetic promoter that contains the U3 region of a modified Moloney murine leukemia virus long term terminal repeat with myeloproliferative sarcoma virus enhancer and deleted negative control region, SEQ ID NO: 58). The viral DNA was packaged into capsids of adeno-associated virus serotype 6 (AAV6) vector. Either the BFP or GFP donor was introduced using the AAV6 vector into the AAVS1 locus in HEK293 T cells by homologous recombination using CRISPR-Cas9 as follows: purified Cas9 protein was complexed with two different single gRNAs (sgRNAs) targeting the AAVS1 locus at SEQ ID NO: 3 (spacer sequence identified by SEQ ID NO: 4; gRNA obtained from Maxcyte) or SEQ ID NO: 5 (spacer sequence identified by SEQ ID NO: 6; gRNA obtained from Thermo Fisher). Cas9 protein used in the Exemplary section provided herein refers to Cas9 polypeptide derived from S pyogenes (SpCas9), unless indicated otherwise.
The Cas9-sgRNA complex was electroporated into the HEK293 T cells using the Lonza Nucleofector program CM-130. Approximately, 2 hours after electroporation, the cells were infected with various viral doses of AAV6 encoding a BFP (SEQ ID NO: 44) or GFP homology donor (SEQ ID NO: 47). One week later, cells were analyzed by flow cytometry to verify integration and expression of BFP or GFP in the AAVS1 locus. HEK293 T cells expressing BFP or GFP were sorted into single cells in 96-well plates. After −2 weeks of growth, DNA extracted from individual cells was analyzed for precise integration of the respective BFP or GFP gene into the AAVS1 locus by long-range PCR. This PCR analysis allowed for determination of whether the BFP/GFP gene was integrated in one or both alleles of the AAVS1 locus.
To introduce a gene edit that converts BFP to GFP, cells were electroporated with ribonucleoprotein (RNP) comprised of Cas9 and sgRNA that targets the BFP gene encoded in the AAVS1 locus. The sgRNA targeted a sequence in the BFP gene identified by SEQ ID NO: 7 (sgRNA spacer sequence identified by SEQ ID NO: 8). The sgRNA were prepared using a standard sgRNA cassette specific to SpCas9, as indicated by SEQ ID NO: 2 (wherein a, c, g, u represent 2′ O-methyl phosphorothioate nucleotides; s represents phosphorothioate nucleotides; and A, C, G, U, N represent canonical RNA nucleotides). The gRNAs used in the Exemplary section provided herein were sgRNAs prepared with the SpCas9 sgRNA cassette unless indicated otherwise. […]

O=c1cc(N2CCOCC2)oc2c(-c3cccc4c3sc3ccccc34)cccc12 [Nu7441]
HDR efficiency, fold higher (2.5 μM Nu7441, each of four ssODN constructs, FIG. 1A): approximately 3 fold
HDR efficiency, high vs low concentration (2.5 μM vs 0.6 μM Nu7441, FIG. 1B, 1C): approximately 1.5 fold
HDR efficiency at higher concentrations (concentrations of Nu7441 higher than 2.5 μM): no further improvement in HDR efficiency

O=C(Nc1ccc(Br)cc1)c1ccc(Br)c(S(=O)(=O)NCc2ccccc2)c1 [RS-1]
HDR efficiency (improvement) (FIG. 1A): no improvement in HDR efficiency

O=c1[nH]c(=S)[nH]c(N=Cc2ccccc2)c1N=Cc1ccccc1 [SCR7]
HDR efficiency (improvement) (FIG. 1A): no improvement in HDR efficiency

i53: polypeptide inhibitor of 53BP1 (SEQ ID NO: 70), delivered as mRNA (ORF SEQ ID NO: 69)
HDR efficiency (different doses of mRNA encoding i53, ssODNs Hn-91-61 and Ht-39-88, FIG. 1D): HDR efficiency increased
